What was measured:
[1] = tested on: normal primary NK cells, pool 1 (3 donors) (IL-2 2.5 ng/mL); test: drug sensitivity score (DSS) (DSS units); higher = more sensitive; extreme values may be limits of the assay; conditions: 72 h
IMC-1 (IL-2 20 ng/mL) [2] = test: as above; conditions: 72 h
NK-YS (IL-2 2.5 ng/mL) [3] = test: as above; conditions: 72 h
YT (IL-2 2.5 ng/mL) [4] = test: as above; conditions: 72 h
DERL-7 (IL-2 2.5 ng/mL) [5] = test: as above; conditions: 72 h
[6] = tested on: normal primary NK cells, pool 2 (3 donors) (IL-2 2.5 ng/mL); test: as above; conditions: 72 h
NK-92 (IL-2 2.5 ng/mL) [7] = test: as above; conditions: 72 h
KHYG-1 (IL-2 2.5 ng/mL) [8] = test: as above; conditions: 72 h
[9] = tested on: normal primary NK cells, pool 1 (3 donors), resting (IL-2 0 ng/mL); test: as above; conditions: 72 h
[10] = tested on: normal primary NK cells, pool 3 (3 donors) (IL-2 2.5 ng/mL); test: as above; conditions: 72 h
NKL (IL-2 2.5 ng/mL) [11] = test: as above; conditions: 72 h
KAI3 (IL-2 2.5 ng/mL) [12] = test: as above; conditions: 72 h
SNK-6 (IL-2 2.5 ng/mL) [13] = test: as above; conditions: 72 h
[14] = tested on: normal NK cells expanded with K562-aAPC; test: as above; conditions: 72 h; IL-2 2.5 ng/mL
Description: (§1)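 Drug sensitivity and resistance testing on K562-aAPC-expanded normal NK cells: 5 concentrations (10-fold steps over a 10,000-fold range), 72 h at 37 °C, viability by CellTiter-Glo normalised to DMSO and benzethonium chloride controls; DSS from the fitted curve.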

[15] = tested on: normal NK cells expanded with K562-aAPC; test: percent inhibition of viability; higher = more inhibition; conditions: 72 h, IL-2 2.5 ng/mL
Description: as §1

[16] = tested on: normal primary NK cells, pool 1 (3 donors) (IL-2 2.5 ng/mL); test: as above; conditions: 72 h
IMC-1 (IL-2 20 ng/mL) [17] = test: as above; conditions: 72 h
NK-YS (IL-2 2.5 ng/mL) [18] = test: as above; conditions: 72 h
YT (IL-2 2.5 ng/mL) [19] = test: as above; conditions: 72 h
DERL-7 (IL-2 2.5 ng/mL) [20] = test: as above; conditions: 72 h
[21] = tested on: normal primary NK cells, pool 2 (3 donors) (IL-2 2.5 ng/mL); test: as above; conditions: 72 h
NK-92 (IL-2 2.5 ng/mL) [22] = test: as above; conditions: 72 h
KHYG-1 (IL-2 2.5 ng/mL) [23] = test: as above; conditions: 72 h
[24] = tested on: normal primary NK cells, pool 1 (3 donors), resting (IL-2 0 ng/mL); test: as above; conditions: 72 h
[25] = tested on: normal primary NK cells, pool 3 (3 donors) (IL-2 2.5 ng/mL); test: as above; conditions: 72 h
NKL (IL-2 2.5 ng/mL) [26] = test: as above; conditions: 72 h
KAI3 (IL-2 2.5 ng/mL) [27] = test: as above; conditions: 72 h
SNK-6 (IL-2 2.5 ng/mL) [28] = test: as above; conditions: 72 h

COC[C@H](NC(=O)c1cnc(C)s1)C(=O)N[C@@H](COC)C(=O)N[C@@H](Cc1ccccc1)C(=O)[C@@]1(C)CO1 [Oprozomib] (max concentration tested 2500 nM)
Conditions | drug sensitivity score
DERL-7 (IL-2 2.5 ng/mL) [5] | 28.6
IMC-1 (IL-2 20 ng/mL) [2] | 18.1
KAI3 (IL-2 2.5 ng/mL) [12] | 24.4
KHYG-1 (IL-2 2.5 ng/mL) [8] | 20.7
NK-92 (IL-2 2.5 ng/mL) [7] | 22.8
NK-YS (IL-2 2.5 ng/mL) [3] | 23.7
NKL (IL-2 2.5 ng/mL) [11] | 20.2
SNK-6 (IL-2 2.5 ng/mL) [13] | 20.4
YT (IL-2 2.5 ng/mL) [4] | 20.6
[1] | 22
[6] | 25.4
[9] | 25
[10] | 24.2
[14] | 23.4

percent inhibition of viability [%]
Conditions | 0.25 nM | 2.5 nM | 25 nM | 250 nM | 2500 nM
DERL-7 (IL-2 2.5 ng/mL) [20] | -5.62 | 7.77 | 81.9 | 101 | 101
IMC-1 (IL-2 20 ng/mL) [17] | -7.29 | -3.63 | 0.39 | 101 | 101
KAI3 (IL-2 2.5 ng/mL) [27] | -8.21 | -2.86 | 52.1 | 105 | 108
KHYG-1 (IL-2 2.5 ng/mL) [23] | -7.33 | -2.59 | 15.4 | 108 | 110
NK-92 (IL-2 2.5 ng/mL) [22] | -20.8 | 3.65 | 34.1 | 107 | 110
NK-YS (IL-2 2.5 ng/mL) [18] | -6.41 | -1.88 | 43.6 | 106 | 109
NKL (IL-2 2.5 ng/mL) [26] | -18 | -8.51 | 12.1 | 107 | 110
SNK-6 (IL-2 2.5 ng/mL) [28] | -7.89 | -7.58 | 14.6 | 101 | 101
YT (IL-2 2.5 ng/mL) [19] | -8.11 | -6.26 | 14.6 | 106 | 110
[15] | -1.45 | 0.37 | 40.2 | 101 | 102
[16] | -9.35 | 5.43 | 36 | 97.7 | 99.8
[21] | -5.27 | 3.49 | 62.8 | 94.6 | 99.5
[24] | -25.2 | 0.23 | 62.4 | 92.9 | 97.7
[25] | -7.05 | -2.21 | 50.4 | 99 | 100

O=S(=O)(c1cccc2cnccc12)N1CCCNCC1 [Fasudil] (max concentration tested 50000 nM)
Conditions | drug sensitivity score
DERL-7 (IL-2 2.5 ng/mL) [5] | 2.67
IMC-1 (IL-2 20 ng/mL) [2] | 0
KAI3 (IL-2 2.5 ng/mL) [12] | 5.22
KHYG-1 (IL-2 2.5 ng/mL) [8] | 2.15
NK-92 (IL-2 2.5 ng/mL) [7] | 5.03
NK-YS (IL-2 2.5 ng/mL) [3] | 0.3
NKL (IL-2 2.5 ng/mL) [11] | 1.12
SNK-6 (IL-2 2.5 ng/mL) [13] | 0.22
YT (IL-2 2.5 ng/mL) [4] | 4.32
[1] | 4.47
[6] | 6.25
[9] | 0.88
[10] | 2.91
[14] | 1.35

percent inhibition of viability [%]
Conditions | 5 nM | 50 nM | 500 nM | 5000 nM | 50000 nM
DERL-7 (IL-2 2.5 ng/mL) [20] | -1.59 | 2.77 | 2.04 | 10.3 | 31.5
IMC-1 (IL-2 20 ng/mL) [17] | -3.69 | 1.08 | -1.1 | -3.21 | -0.77
KAI3 (IL-2 2.5 ng/mL) [27] | -9.98 | -12.1 | -8.77 | 16.4 | 52.6
KHYG-1 (IL-2 2.5 ng/mL) [23] | -1.86 | -2.81 | -0.3 | 5.17 | 30.2
NK-92 (IL-2 2.5 ng/mL) [22] | -0.3 | -5 | -7.96 | 16.5 | 50
NK-YS (IL-2 2.5 ng/mL) [18] | -10.2 | -12.7 | -8.89 | -1.5 | 17.1
NKL (IL-2 2.5 ng/mL) [26] | -10.3 | -10.6 | -5.56 | 1.78 | 24
SNK-6 (IL-2 2.5 ng/mL) [28] | -14.4 | -9.67 | -10.4 | -26.7 | 19.7
YT (IL-2 2.5 ng/mL) [19] | -0.42 | -0.99 | 2.43 | 9.94 | 50.6
[15] | -7 | -8.84 | -5.88 | 5.82 | 20.5
[16] | -14.3 | 13.1 | 11.4 | 15.1 | 52.8
[21] | -9.61 | 4.29 | 4.21 | 9.95 | 82.7
[24] | -18 | 5.15 | -1.43 | 5.51 | 16.6
[25] | -8.61 | 9.41 | 3.96 | -0.18 | 54.6

From the supplement of paper PMC5908809
